1 sequence from article PMC6520365, “Structural and functional characterization of the PDZ domain of the human phosphatase PTPN3 and its interaction with the human papillomavirus E6 oncoprotein” (Scientific Reports, 2019) can be followed below.

The experiment deals with T1, PTPN3-PDZ (Homo sapiens, UniProt P26045).
T1 construct: GST (followed by a TEV cleavage site) (N, cleaved yes); made in house; host or cells: E. coli BL21 Star (DE3)
T1 sequence (P26045 510-582 limits assumed): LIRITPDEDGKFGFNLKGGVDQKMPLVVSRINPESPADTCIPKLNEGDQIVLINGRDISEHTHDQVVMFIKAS
The experiment can be described thus: NMR titration (1H,15N HSQC chemical shift perturbation) of PBM peptide affinity for PTPN3-PDZ. It is filed as binding. As to the method:
The affinities of HPV16E6 PBM, HPV18E6 PBM, p38γ PBM and HBVc PBM for PTPN3-PDZ were measured by NMR titration. We followed ^1H, ^15N chemical shift perturbations of PTPN3-PDZ signals in the ^1H-^15N HSQC spectra as a function of increasing concentrations of the PBM peptide to determine the dissociation constant (KD) (Fig. S1). […] The KD values are all in the same tenth-of-micromolar range for the viral PBMs and are close to the one of the cellular partner p38γ. […]
Briefly, the unlabeled peptides (stock solutions ranging from 2.8 to 5.7 mM) at pH 7.5 were added stepwise in a sample initially containing 240–260 μL of ^15N-labeled PTPN3-PDZ at a concentration of 95 or 149 μM. A series of ^1H, ^15N HSQC spectra was recorded for the different titration points. Chemical shift changes were calculated using the free PTPN3-PDZ signals as a reference. Chemical shift differences in the cross-peaks by titration were calculated using the relationship: Δδ = ((ΔδHN)^2 + (0.15 × ΔδN)^2)^0.5 where ΔδHN and ΔδN are changes in the ^1H and ^15N chemical shifts in ppm, respectively. […]

Ends that are not written are not given here.

As to RQERLQRRETQV [HPV18E6 PBM], the Kd (commonly the concentration at which binding is half-saturated) is 37 ± 20 µM.
